From patent US9040691B2, “Hydroxymethylaryl-substituted pyrrolotriazines as ALK1 inhibitors” (BAYER INTELLECTUAL PROPERTY GMBH, priority 2011, dated 2015) come the findings set out here.

This assay concerns the target ALK1 kinase (Homo sapiens (Human), UniProt P37023). Briefly: In vitro enzyme inhibition using scintillation of incorporated radio label (flashplate assay). As to conditions: biotinylated α-casein, 33P-ATP, 500 nM ATP. The assay is classed as biochemical. As for the experimental part:
B-1a. In Vitro Enzyme Inhibition Using Scintillation of Incorporated Radio Label (Flashplate Assay)
Test compounds diluted in DMSO are mixed with a suitable substrate/co-substrate (here: biotinylated α-casein and ^33P-ATP) in a corresponding assay buffer. Addition of the enzyme of interest (here: ALK1 kinase) starts the enzyme reaction. The enzyme-catalyzed incorporation of radio label into the substrate is measured via scintillation. Incorporated radio label is separated from free radio label via specific binding of the biotinylated substrate to strepavidin-coated microtiter plates (flashplates) and concomitant washing steps. The scintillation signal intensity (counts per minutes, cpm) is proportional to the enzyme activity. Enzyme inhibition results in a decreased signal intensity. IC50 values of the test compounds are determined by cpm-versus-[I] plots.
Reaction buffer contains 50 mM Tris pH 8.0 (Sigma), 1 mM MnCl2 (Sigma), 0.01% Nonidet P40 (Fluka), 0.5× Complete EDTA-free protease inhibitors (Roche; contains a mixture of several protease inhibitors for the inhibition of serine and cysteine (but not metallo-) proteases; 1 tablet contains protease inhibitors sufficient for a 50 ml cell extract; the concentration used in this assay corresponds to 1 tablet in 100 ml).
• 1.) Stop solution: Dulbecco's PBS (PAA, Pasching, Austria), 25 mM EDTA (Sigma), 25 μM ATP (Roche), 0.05% Triton X-100 (Sigma); • 2.) Saturation buffer: Dulbecco's PBS (PAA, Pasching, Austria), 100 μM ATP (Roche), 0.2% Triton X-100 (Sigma); • 3.) Wash buffer: Dulbecco's PBS (PAA, Pasching, Austria). Enzyme Solution:
ALK1 (Invitrogen, Paisley, United Kingdom) stock solution (35.7 ng/μl) is diluted to 4 ng/μl; final concentration in the reaction is 1 ng/μl.
Dephosphorylated α-casein (Sigma) is biotinylated according to the manufacturer's protocol (Pierce, Bonn, Germany) resulting in a stock solution of 61.6 μM. Briefly, EZ-Link® Biotin reagent (sulfosuccinimidyl-6-(biotinamido)hexanoate; Pierce, Bonn, Germany) is added in equal molarity to α-casein and incubated on ice for 2 h. Afterwards, the biotin reagent is removed by dialysis (2×2 h and overnight).
A 100 mM solution of cold (unlabelled) ATP (Roche) is diluted 1:100 before each test. For the substrate mix, α-casein is diluted to 2.22 μM resulting in a final concentration of 1 μM α-casein in the reaction. Additionally, cold ATP is added to give a 1.11 μM solution which results in a final concentration of 500 nM in the reaction.
Radioactive ATP Solution:
The stock solution (9.25 MBq/25 μl of ^33P-ATP; Perkin Elmer, Rodgau, Germany) is diluted to 651.2 Bq/μl.
Compounds are dissolved in 100% DMSO (10 mM stock solution) and diluted to 2 mM. Further dilutions are made stepwise 1:3.16 in DMSO.
A volume of 9 μl substrate solution is provided into each well of a 384 well microliter plate (Greiner Bio-One, Solingen, Germany), 1 μl compound solution and 5 μl of the radioactive ATP solution are added. Enzyme reaction starts with addition of 5 μl of enzyme solution. The mixture is incubated for 60 minutes at room temperature and then stopped by addition of 10 μl stop solution. The 384 well microliter flashplates (Perkin Elmer, Rodgau, Germany) are saturated with 50 μl saturation buffer per well for at least 60 minutes. Subsequently, a volume of 20 μl is discarded and replaced with 20 μl of the stopped ALK1 reaction mixture. Binding of biotinylated substrate to the flashplate is allowed for by overnight incubation at room temperature. Bound substrate is separated from unbound components through repeated washing steps (3×50 μl washing buffer per well). Finally, 50 μl washing buffer is added, and the scintillation signal (cpm) is measured in a suitable counter (Perkin Elmer, Rodgau, Germany).

Each structure is given as a SMILES string. Counter-ions that a name gives are not always drawn.

ALK1 kinase, sequence (P37023 22-503): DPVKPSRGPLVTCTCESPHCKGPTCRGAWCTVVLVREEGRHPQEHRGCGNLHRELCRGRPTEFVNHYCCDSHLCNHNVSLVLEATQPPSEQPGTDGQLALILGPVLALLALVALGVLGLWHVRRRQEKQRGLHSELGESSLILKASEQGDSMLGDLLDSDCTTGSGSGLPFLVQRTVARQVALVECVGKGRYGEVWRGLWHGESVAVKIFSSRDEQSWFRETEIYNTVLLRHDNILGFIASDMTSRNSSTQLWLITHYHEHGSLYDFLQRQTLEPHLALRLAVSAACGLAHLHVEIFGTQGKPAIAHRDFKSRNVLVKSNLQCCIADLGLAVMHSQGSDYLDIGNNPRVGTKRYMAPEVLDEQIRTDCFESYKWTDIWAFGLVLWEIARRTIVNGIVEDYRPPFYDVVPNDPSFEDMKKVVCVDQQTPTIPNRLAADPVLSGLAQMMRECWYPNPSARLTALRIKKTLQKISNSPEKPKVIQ

For orientation: IC50 means the concentration that gives 50% inhibition. `Nc1ncnn2c(C3(O)CCCNC3)cc(-c3cc(F)c(CO)c(F)c3)c12` (racemic) [Example 9, rac-3-{4-Amino-5-[3,5-difluoro-4-(hydroxymethyl)phenyl]pyrrolo[2,1-f][1,2,4]triazin-7-yl}-piperidin-3-ol] displayed an IC50 of 5.7 nM. Next, `CC(O)c1cc(-c2cc(F)c(CO)c(F)c2)c2c(N)ncnn12` (racemic) [Example 44, rac-1-{4-Amino-5-[3,5-difluoro-4-(hydroxymethyl)phenyl]pyrrolo[2,1-f][1,2,4]triazin-7-yl}-ethanol]: 3.8 nM; `Nc1ncnn2c(CCCCO)cc(-c3ccc(CO)cc3)c12` [Example 4, 4-{4-Amino-5-[4-(hydroxymethyl)phenyl]pyrrolo[2,1-f][1,2,4]triazin-7-yl}butan-1-ol]: 1 nM; `Nc1ncnn2c(C(O)C3CCOCC3)cc(-c3cc(F)c(CO)c(F)c3)c12` (stereo not shown) [Example 6, {4-Amino-5-[3,5-difluoro-4-(hydroxymethyl)phenyl]pyrrolo[2,1-f][1,2,4]triazin-7-yl}(tetrahydro-2H-pyran-4-yl)methanol]: 40 nM. The compound `Nc1ncnn2c(C3CCNCC3)cc(-c3ccc(CO)cc3)c12` [Example 10, {4-[4-Amino-7-(piperidin-4-yl)pyrrolo[2,1-f][1,2,4]triazin-5-yl]phenyl}methanol] showed an IC50 of 8 nM. As for `Nc1ncnn2c([C@H]3CCCNC3)cc(-c3cc(F)c(CO)c(F)c3)c12` [Example 12, (4-{4-Amino-7-[(3S)-piperidin-3-yl]pyrrolo[2,1-f][1,2,4]triazin-5-yl}-2,6-difluorophenyl)methanol], the IC50 was found to be 5.9 nM. Consider `Cc1nc(-c2cc(-c3ccc(CO)cc3)c3c(N)ncnn23)cs1` [Example 13, {4-[4-Amino-7-(2-methyl-1,3-thiazol-4-yl)pyrrolo[2,1-f][1,2,4]triazin-5-yl]phenyl}methanol], for which 4 nM corresponded to half-maximal inhibition (IC50). Consider `Cc1nc(-c2cc(-c3cc(F)c(CO)c(F)c3)c3c(N)ncnn23)cs1` [Example 14, {4-[4-Amino-7-(2-methyl-1,3-thiazol-4-yl)pyrrolo[2,1-f][1,2,4]triazin-5-yl]-2,6-difluorophenyl}-methanol], for which the IC50 turned out to be 5.3 nM. The compound `CCc1nc(-c2cc(-c3ccc(CO)cc3)c3c(N)ncnn23)cs1` [Example 15, {4-[4-Amino-7-(2-ethyl-1,3-thiazol-4-yl)pyrrolo[2,1-f][1,2,4]triazin-5-yl]phenyl}methanol] gave an IC50 of 60 nM. `CCc1nc(-c2cc(-c3cc(F)c(CO)c(F)c3)c3c(N)ncnn23)cs1` [Example 16, {4-[4-Amino-7-(2-ethyl-1,3-thiazol-4-yl)pyrrolo[2,1-f][1,2,4]triazin-5-yl]-2,6-difluorophenyl}-methanol] showed an IC50 of 2.6 nM. Regarding `Nc1ncnn2c(CN3CCNCC3)cc(-c3ccc(CO)cc3)c12` [Example 18, {4-[4-Amino-7-(piperazin-1-ylmethyl)pyrrolo[2,1-f][1,2,4]triazin-5-yl]phenyl}methanol], the IC50 is 80 nM.

With `Nc1ncnn2c(CN3CCOCC3)cc(-c3ccc(CO)cc3)c12` [Example 19, {4-[4-Amino-7-(morpholin-4-ylmethyl)pyrrolo[2,1-f][1,2,4]triazin-5-yl]phenyl}methanol], the IC50 came out at 19 nM. Take `Cc1cc(-c2cc(CN3CCOCC3)n3ncnc(N)c23)ccc1CO` [Example 23, {4-[4-Amino-7-(morpholin-4-ylmethyl)pyrrolo[2,1-f][1,2,4]triazin-5-yl]-2-methylphenyl}methanol]: the 50% inhibitory concentration (IC50) stood at 30 nM. In the case of `Nc1ncnn2c(CN3CCOCC3)cc(-c3ccc(CO)nc3)c12` [Example 24, {5-[4-Amino-7-(morpholin-4-ylmethyl)pyrrolo[2,1-f][1,2,4]triazin-5-yl]pyridin-2-yl}methanol], half-maximal inhibition (IC50) was put at 140 nM. Turning to `Nc1ncnn2c(CN3CCC(O)CC3)cc(-c3cc(F)c(CO)c(F)c3)c12` [Example 25, 1-({4-Amino-5-[3,5-difluoro-4-(hydroxymethyl)phenyl]pyrrolo[2,1-f][1,2,4]triazin-7-yl}methyl)piperidin-4-ol], inhibition was half-maximal at 65 nM (IC50). The compound `Nc1ncnn2c(CN3CCC(O)C3)cc(-c3cc(F)c(CO)c(F)c3)c12` (stereo not shown) [Example 26, 1-({4-Amino-5-[3,5-difluoro-4-(hydroxymethyl)phenyl]pyrrolo[2,1-f][1,2,4]triazin-7-yl}methyl)pyrrolidin-3-ol] gave an IC50 of 30 nM. In turn, `Nc1ncnn2c(CN3CCCC(O)C3)cc(-c3cc(F)c(CO)c(F)c3)c12` (stereo not shown) [Example 27, 1-({4-Amino-5-[3,5-difluoro-4-(hydroxymethyl)phenyl}pyrrolo[2,1-f][1,2,4]triazin-7-yl]methyl)piperidin-3-ol] yielded an IC50 of 70 nM. In the case of `COc1cc(-c2cc([C@H]3CC[C@H](O)CC3)n3ncnc(N)c23)cc(F)c1CO` [Example 29, trans-4-{4-Amino-5-[3-fluoro-4-(hydroxymethyl)-5-methoxyphenyl]pyrrolo[2,1-f][1,2,4]triazin-7-yl}cyclohexanol], the IC50 is 1 nM.

For the compound `Cc1cc(-c2cc(C3CCCNC3)n3ncnc(N)c23)cc(F)c1CO` (stereo not shown) [Example 31, {4-[4-Amino-7-(piperidin-3-yl)pyrrolo[2,1-f][1,2,4]triazin-5-yl]-2-fluoro-6-methylphenyl}-methanol], half-maximal inhibition (IC50) was put at 4 nM. The compound `Cc1cc(-c2cc(C3CCNC3)n3ncnc(N)c23)cc(F)c1CO` (stereo not shown) [Example 32, {4-[4-Amino-7-(pyrrolidin-3-yl)pyrrolo[2,1-f][1,2,4]triazin-5-yl]-2-fluoro-6-methylphenyl}-methanol] came in with an IC50 of 4 nM. With `Nc1ncnn2c(C3(O)CCCCC3)cc(-c3cc(F)c(CO)c(F)c3)c12` [Example 33, 1-{4-Amino-5-[3,5-difluoro-4-(hydroxymethyl)phenyl]pyrrolo[2,1-f][1,2,4]triazin-7-yl}cyclohexanol trifluoroacetate] the figure was 15 nM; with `NCc1nc(-c2cc(-c3cc(F)c(CO)c(F)c3)c3c(N)ncnn23)cs1` [Example 34, (4-[4-Amino-7-[2-(aminomethyl)-1,3-thiazol-4-yl]pyrrolo[2,1-f][1,2,4]triazin-5-yl]-2,6-difluorophenyl)methanol], 4.1 nM.
